Measurements reported in patent publication US11021486B2, “Coumarin-like cyclic compound as MEK inhibitor and use thereof” (CSTONE PHARMACEUTICALS, priority 2017, dated 2021).
Where two headings read alike, the source gives them in different places.

Columns and labels:
activated MEK1 = biological target: T1, activated MEK1 (Homo sapiens, UniProt Q02750); test: MEK Lance Ultra experiment; type: biochemical; conditions: 0.07 nM activated MEK1, 2 nM non-activated ERK, 50 μM ATP; read-out: MEK potency IC50
T1 construct: purchased Millipore 14-429
T1 sequence (Q02750 whole entry): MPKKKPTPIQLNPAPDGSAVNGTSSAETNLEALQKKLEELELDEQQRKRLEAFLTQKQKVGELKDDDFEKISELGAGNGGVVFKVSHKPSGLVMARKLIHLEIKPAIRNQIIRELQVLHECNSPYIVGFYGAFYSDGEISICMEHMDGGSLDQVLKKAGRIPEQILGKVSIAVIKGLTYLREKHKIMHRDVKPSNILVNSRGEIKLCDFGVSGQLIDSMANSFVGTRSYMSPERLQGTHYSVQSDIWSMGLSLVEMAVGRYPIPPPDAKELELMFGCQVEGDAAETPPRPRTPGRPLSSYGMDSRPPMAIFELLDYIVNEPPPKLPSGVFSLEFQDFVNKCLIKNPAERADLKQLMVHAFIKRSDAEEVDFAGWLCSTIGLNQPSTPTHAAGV
Description: Biological Test Method 1: MEK Lance Ultra Experiment Compounds were serially diluted three-fold to 10 concentrations, two duplicates were set. Final test concentrations of the compounds ranged from 10 μM to 0.51 nM. 0.07 nM activated MEK1 (Millipore #14-429) and 2 nM non-activated ERK (Millipore #14-515) were mixed with the compounds or DMSO, the mixture was incubated at 23° C. for 30 minutes. Then 50 nM ULight labeled MBP (PerkinElmer #TRF0109-M) and 50 μM ATP (Invitrogen #PV3227) were added to initiate the reaction, and the mixture was incubated at 23° C. for 90 minutes. After the reaction was stopped by adding EDTA at a final concentration of 15 mM, 2 nM Eu-labeled anti-phosphorylated antibody (PerkinElmer #TRF0201-M) was added and incubated for 1 hour. The fluorescence signal data (excitation band: 320 nm; emission band: 665 nM/615 nM) was determined by an Envision microplate reader (PerkinElmer). XLfit5 software was used for data analysis and mapping.

HT29 cells = test: Cell viability experiment (Cell Titer-Glo), HT29; type: cell-based, human
Description: (§1) Biological Test Method 2: Cell Viability Experiment
(§2) HT29 and A375 cells were plated in a 96-well cell culture plate at a density of 40,000 cells/well and 20,000 cells/well respectively, and the cells were cultured overnight. The compounds were serially diluted in a gradient of 1:3, the dilutions were added to the cell culture medium, and incubated with the cells in a 37° C. incubator for 3 days. The 96-well cell culture plate was taken from the incubator and equilibrated at room temperature for 30 minutes, then Cell Titer-Glo reagent (Promega Cat #G7573) was added at a ratio of 1:2, and the mixture was mixed thoroughly on a shaker for 2 minutes to promote cell lysis. The cell culture plate was incubated at room temperature for 10 minutes and then read on an Envision microplate reader (PerkinElmer). XLfit5 software was used for data analysis and mapping.

A375 cells = test: Cell viability experiment (Cell Titer-Glo), A375; type: cell-based
Description: as §1, §2

[1] = Homo sapiens, HT-29, 72 h, HT29 cells, 3 days incubation, read-out: HT29 IC50
[2] = Homo sapiens, A-375, 72 h, A375 cells, 3 days incubation, read-out: A375 IC50
[3] = read-out: HT29 IC50, HT29 cells, 3 days incubation
[4] = read-out: A375 IC50, A375 cells, 3 days incubation

Compound | IC50 (activated MEK1) | IC50 (HT29 cells; [1]) | IC50 (A375 cells; [2]) | other results
COCCn1c(C)cc2oc(=O)c(C)c(Nc3ccc(I)cc3F)c2c1=O [WX060] | 86.4 nM | 115 nM | 66.9 nM | 
CC(=O)Nc1ccc(F)c(-c2c(C)n(C3CC3)c(=O)c3c(Nc4ccc(I)cc4F)c(C)c(=O)oc23)c1 [WX048] | 581 nM | 101 nM | 52.6 nM | 
CC(=O)NCc1cccc(-c2c(C)n(C3CC3)c(=O)c3c(Nc4ccc(I)cc4F)c(C)c(=O)oc23)c1 [WX069] | 41.6 nM | 40.3 nM | 6.63 nM | 
CC(=O)Nc1cccc(-c2c(C)n(C3CC3)c(=O)c3c(Nc4ccc(I)cc4F)c(C)c(=O)oc23)c1C [WX096] | 8.73 nM |  |  | IC50 (HT29 cells; Homo sapiens, HT-29, 72 h, read-out: HT29 IC50, HT29 cells, 3 days incubation): 10.3 nM; IC50 (A375 cells; Homo sapiens, A-375, 72 h, read-out: A375 IC50, A375 cells, 3 days incubation): 2.47 nM
Cc1c(Nc2ccc(I)cc2F)c2c(=O)n(C3CC3)c(C)c(-c3cccc(CNS(N)(=O)=O)c3)c2oc1=O [WX092] | 178 nM | 8.96 nM | 7.54 nM | 
Cc1ccccc1-c1c(C)n(C2CC2)c(=O)c2c(Nc3ccc(I)cc3F)c(C)c(=O)oc12 [WX111] | 14.4 nM | 14.9 nM | 3.56 nM | 
Cc1c(Nc2ccc(I)cc2F)c2c(=O)n(C3CC3)c(C)c(-c3cccc(NC(=O)N4CCOCC4)c3)c2oc1=O [WX085] | 118 nM | 9.34 nM | 4.65 nM | 
Cc1c(Nc2ccc(I)cc2F)c2c(=O)n(C3CC3)c(C)c(-c3cccc(NS(=O)(=O)C4CC4)c3)c2oc1=O [WX089] | 61.1 nM | 1.32 nM | 0.47 nM | 
Cc1c(Nc2ccc(I)cc2F)c2c(=O)n(C3CC3)c(C)c(Cc3cccc(N)c3)c2oc1=O [WX101] | 17.4 nM | 12.6 nM | 1.76 nM | 
CC(=O)Nc1cccc(-c2c(C)n(CC(O)CO)c(=O)c3c(Nc4ccc(I)cc4F)c(C)c(=O)oc23)c1 (stereo not drawn) [WX058] | 83 nM | 102 nM | 91.1 nM | 
Cc1c(Nc2ccc(I)cc2F)c2c(=O)n(C3CC3)c(C)c(-c3cccc(CNS(C)(=O)=O)c3)c2oc1=O [WX088] | 45.4 nM | 4.59 nM | 2.13 nM | 
Cc1c(Nc2ccc(I)cc2F)c2c(=O)n(C3CC3)c(C)c(-c3cccc(NS(C)(=O)=O)c3Cl)c2oc1=O (single isomer, unassigned) [WX117] | 424 nM |  |  | IC50 (HT29 cells; [3]): 18.7 nM; IC50 (A375 cells; [4]): 7.18 nM
CC(=O)Nc1ccc(C)c(-c2c(C)n(C3CC3)c(=O)c3c(Nc4ccc(I)cc4F)c(C)c(=O)oc23)c1 [WX036] | 44.3 nM | 69 nM | 33.6 nM | 
COCCCn1c(C)cc2oc(=O)c(C)c(Nc3ccc(I)cc3F)c2c1=O [WX057] | 78 nM | 72.5 nM | 24.1 nM | 
COC(OC)C(=O)Nc1cccc(-c2c(C)n(C3CC3)c(=O)c3c(Nc4ccc(I)cc4F)c(C)c(=O)oc23)c1 [WX081] | 105 nM | 13 nM | 5.26 nM | 
CC(=O)Nc1cccc(-c2c(C)n(CCN(C)C(C)=O)c(=O)c3c(Nc4ccc(I)cc4F)c(C)c(=O)oc23)c1 [WX056] | 54.1 nM | 2820 nM | 1550 nM | 
Cc1c(Nc2ccc(I)cc2F)c2c(=O)n(C3CC3)c(C)c(-c3ccnc(NS(C)(=O)=O)c3)c2oc1=O [WX105] | 282 nM | 16.2 nM | 8.19 nM | 
Cc1c(Nc2ccc(I)cc2F)c2c(=O)n(C3CC3)c(C)c(-c3cccc(NS(C)(=O)=O)c3Cl)c2oc1=O (single isomer, unassigned) [WX116] | 34.5 nM |  |  | IC50 (HT29 cells; [3]): 0.82 nM; IC50 (A375 cells; [4]): 0.39 nM
COCCCn1c(C)c(-c2cccc(NC(C)=O)c2)c2oc(=O)c(C)c(Nc3ccc(I)cc3F)c2c1=O [WX062] | 68 nM | 745 nM | 631 nM | 
CCc1c(Nc2ccc(I)cc2F)c2c(=O)n(C3CC3)c(C)c(-c3cccc(CS(C)(=O)=O)c3C)c2oc1=O [WX110] | 93.6 nM | 207 nM | 94.5 nM | 
Cc1[nH]c(=O)c2c(Nc3ccc(I)cc3F)c(C)c(=O)oc2c1-c1cccc(NS(C)(=O)=O)c1C (single isomer, unassigned) [WX118] | 32.7 nM |  |  | IC50 (HT29 cells; HT29 cells, 3 days incubation, read-out: HT29 IC50): 1.76 nM; IC50 (A375 cells; A375 cells, 3 days incubation, read-out: A375 IC50): 0.41 nM
